Reference: ChEMBL document CHEMBL4387771, “Discovery of 1,2,3-triazole-based fibroblast growth factor receptor modulators” (Bioorg Med Chem Lett, 2019)
Active and inactive are the calls of the source. The rule behind the calls is not given here.

Columns and labels:
[1] = Brain to plasma permeability coefficient, Kp of the compound in Sprague-Dawley rat at 3 mg/kg, iv measured after 1 hr; assay type: ADME, organism-based; settings: brain and plasma
[2] = Clearance in Sprague-Dawley rat at 3 mg/kg, iv; assay type: ADME, organism-based; settings: in vivo
[3] = Elimination half life in Sprague-Dawley rat at 3 mg/kg, iv; assay type: ADME, organism-based; settings: in vivo, read-out: beta t1/2 (converted)
CYP3A4 = CYP3A4 (Homo sapiens, UniProt P08684); assay: Inhibition of CYP3A4 in human liver microsomes assessed as enzyme residual activity at 100 uM measured after 30 mins relative to control; assay type: ADME; settings: read-out: Activity
[4] = AUC in Sprague-Dawley rat at 5 mg/kg, po; assay type: ADME, organism-based; settings: in vivo
[5] = target: Fibroblast growth factor receptor 1 (Rattus norvegicus) (UniProt Q04589); assay: Modulation of FGFR in Wistar rat neuronal cells assessed as protection against glutamate-induced toxicity at 10 uM pretreated for 24 hrs followed by glutamate-stimulation and measured after 24 hrs in presence of FGFR1 inhibitor PD166866 by CCK8 assay; assay type: cell-based
[6] = target: Fibroblast growth factor receptor 1 (Rattus norvegicus) (UniProt Q04589); assay: Modulation of FGFR in Wistar rat neuronal cells assessed as protection against glutamate-induced toxicity at 10 uM pretreated for 24 hrs followed by glutamate-stimulation and measured after 24 hrs by CCK8 assay relative to SUN13837; assay type: cell-based
[7] = Oral bioavailability in Sprague-Dawley rat at 5 mg/kg; assay type: ADME, organism-based; settings: in vivo
[8] = Lipophilicity, log P of the compound by RP-HPLC analysis; assay type: physicochemical
[9] = Metabolic stability in human liver microsomes assessed as metabolic turnover rate per mg protein in presence of NADPH; assay type: ADME, Microsome
[10] = Elimination half life in Sprague-Dawley rat at 1 mg/kg, iv; assay type: ADME, organism-based; settings: in vivo, read-out: beta t1/2 (converted)
[11] = Clearance in Sprague-Dawley rat at 1 mg/kg, iv; assay type: ADME, organism-based; settings: in vivo
[12] = Brain to plasma permeability coefficient, Kp of the compound in Sprague-Dawley rat at 1 mg/kg, iv measured after 1 hr; assay type: ADME, organism-based; settings: brain and plasma

Chain of Fibroblast growth factor receptor 1 (Rattus norvegicus) (Q04589 whole entry): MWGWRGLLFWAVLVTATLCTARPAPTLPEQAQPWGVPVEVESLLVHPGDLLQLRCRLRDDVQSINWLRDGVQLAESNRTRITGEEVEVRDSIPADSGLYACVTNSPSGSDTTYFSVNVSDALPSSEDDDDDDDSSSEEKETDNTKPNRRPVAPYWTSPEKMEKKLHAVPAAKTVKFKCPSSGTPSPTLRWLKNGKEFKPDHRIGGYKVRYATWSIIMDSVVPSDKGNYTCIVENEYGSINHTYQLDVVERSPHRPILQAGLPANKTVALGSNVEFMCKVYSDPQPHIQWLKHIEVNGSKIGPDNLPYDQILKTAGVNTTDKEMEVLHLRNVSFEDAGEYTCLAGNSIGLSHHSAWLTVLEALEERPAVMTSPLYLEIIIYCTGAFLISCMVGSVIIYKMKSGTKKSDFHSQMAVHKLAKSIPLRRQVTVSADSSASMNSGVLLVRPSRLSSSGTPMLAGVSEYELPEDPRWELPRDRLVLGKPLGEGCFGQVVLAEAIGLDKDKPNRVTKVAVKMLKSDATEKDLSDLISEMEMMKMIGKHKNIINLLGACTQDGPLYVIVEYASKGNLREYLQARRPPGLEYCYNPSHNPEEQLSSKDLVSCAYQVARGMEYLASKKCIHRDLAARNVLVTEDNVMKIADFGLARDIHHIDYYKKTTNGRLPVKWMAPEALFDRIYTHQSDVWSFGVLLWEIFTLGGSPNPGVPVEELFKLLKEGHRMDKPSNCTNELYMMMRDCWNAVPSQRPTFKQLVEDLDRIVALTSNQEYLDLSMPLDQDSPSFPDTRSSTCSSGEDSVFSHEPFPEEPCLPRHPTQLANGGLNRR
Chain of CYP3A4 (P08684 whole entry): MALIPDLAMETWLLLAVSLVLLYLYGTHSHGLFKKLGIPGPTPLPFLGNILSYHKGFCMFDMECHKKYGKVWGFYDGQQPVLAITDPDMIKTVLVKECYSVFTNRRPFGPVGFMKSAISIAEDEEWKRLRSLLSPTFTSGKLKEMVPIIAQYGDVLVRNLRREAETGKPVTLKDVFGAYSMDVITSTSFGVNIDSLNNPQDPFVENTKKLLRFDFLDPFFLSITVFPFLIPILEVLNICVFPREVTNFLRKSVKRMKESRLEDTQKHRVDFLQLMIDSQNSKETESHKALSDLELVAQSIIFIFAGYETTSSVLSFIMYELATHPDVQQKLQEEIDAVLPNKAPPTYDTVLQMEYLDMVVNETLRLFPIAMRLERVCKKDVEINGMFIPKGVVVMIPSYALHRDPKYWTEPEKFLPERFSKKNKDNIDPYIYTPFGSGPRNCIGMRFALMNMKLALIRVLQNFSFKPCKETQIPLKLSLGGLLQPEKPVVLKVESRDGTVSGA

Row | Compound | Kp at 1 h [1] | clearance [2] | half-life [3] | activity at 0.5 h, 100 µM (CYP3A4) | AUC [4] | bioavailability [7] | logP [8] | Drug metabolism [9] | half-life [10] | clearance [11] | Kp at 1 h [12] | Activity [5] | Activity [6]
1 | Cc1ccc(OCc2cn(C3CCN(CC4CC4)CC3)nn2)nn1 |  |  |  | 100% |  |  | 1.4 | 34 pmol/min |  |  |  |  | 118%
2 | Cc1ccc(OCc2cn(C3CCN(Cc4ccccc4)CC3)nn2)nn1 |  |  |  | 100% |  |  | 3.5 | 45 pmol/min |  |  |  |  | 135%
3 | Cc1cnc(OCc2cn(C3CCN(Cc4ccccc4)CC3)nn2)nc1 |  |  |  | 100% |  |  | 4 | 40 pmol/min |  |  |  |  | 66%
4 | Cc1ccc(OCc2cnnn2C2CCN(Cc3ccccc3)CC2)nn1 |  |  |  |  |  |  | 3.8 |  |  |  |  |  | 73%
5 | Cc1cnc(OCc2cn(C3CCN(CC4CC4)CC3)nn2)nc1 |  |  |  | 100% |  |  | 1.7 |  |  |  |  |  | 100%
6 | Cc1nc(OCC(=O)N(C)C2CCN(Cc3ccccc3)CC2)nc(C)c1N |  |  |  | 60% |  |  | 2.3 | < 10 pmol/min |  |  |  |  | 

The next lines start with results.

Row | Kp at 1 h [1] | clearance [2] | half-life [3] | activity at 0.5 h, 100 µM (CYP3A4) | AUC [4] | bioavailability [7] | logP [8] | Drug metabolism [9] | half-life [10] | clearance [11] | Kp at 1 h [12] | Compound | Activity [5] | Activity [6]
7 | 1.3 | 10 mL/min/kg | 4 h | 94% | 4520 ng·h/mL | 57% | 2.4 | < 10 pmol/min |  |  |  | Cc1c(COc2ncc(Cl)cn2)nnn1C1CCN(CC2CC2)CC1 | inactive | 311%
8 |  |  |  | 100% | 2120 ng·h/mL | 58% | 2.6 | 24 pmol/min | 1.6 h | 21.7 mL/min/kg | 1.1 | Clc1cnc(OCc2cn(C3CCN(CC4CC4)CC3)nn2)nc1 |  | 162%
9 |  |  |  | 19% |  |  | 3 | 19 pmol/min |  |  |  | Cc1nc(OCc2cn(C3CCN(Cc4ccccc4)CC3)nn2)nc(C)c1N | inactive | 134%
10 |  |  |  | 100% |  |  | 1.4 | < 10 pmol/min |  |  |  | Cc1nc(OCc2cn(C3CCN(CC4CC4)CC3)nn2)nc(C)c1N |  | 116%
11 |  |  |  | 99% |  |  | 5 | 86 pmol/min |  |  |  | Clc1cnc(OCc2cn(C3CCN(Cc4ccccc4)CC3)nn2)nc1 |  | 43%
